# Results reported in patent US11780852B2, “Methods for treating Crohn's disease using 3-((1R,3s,5S)-3-((7-((5-methyl-1H-pyrazol-3-yl)amino)-1,6-naphthyridin-5-yl)amino)-8-azabicyclo[3.2.1]octan-8-yl)propanenitrile” (priority 2015, dated 2023).
# Read-outs that look alike come from different tables or passages of the source.
# What was measured:
# [1] = tested on: IL-13 induced STAT6 phosphorylation in BEAS-2B human lung epithelial cells
# JAK1 = JAK1 (Homo sapiens (Human), UniProt P23458); format: biochemical
# JAK1, sequence (P23458 whole entry): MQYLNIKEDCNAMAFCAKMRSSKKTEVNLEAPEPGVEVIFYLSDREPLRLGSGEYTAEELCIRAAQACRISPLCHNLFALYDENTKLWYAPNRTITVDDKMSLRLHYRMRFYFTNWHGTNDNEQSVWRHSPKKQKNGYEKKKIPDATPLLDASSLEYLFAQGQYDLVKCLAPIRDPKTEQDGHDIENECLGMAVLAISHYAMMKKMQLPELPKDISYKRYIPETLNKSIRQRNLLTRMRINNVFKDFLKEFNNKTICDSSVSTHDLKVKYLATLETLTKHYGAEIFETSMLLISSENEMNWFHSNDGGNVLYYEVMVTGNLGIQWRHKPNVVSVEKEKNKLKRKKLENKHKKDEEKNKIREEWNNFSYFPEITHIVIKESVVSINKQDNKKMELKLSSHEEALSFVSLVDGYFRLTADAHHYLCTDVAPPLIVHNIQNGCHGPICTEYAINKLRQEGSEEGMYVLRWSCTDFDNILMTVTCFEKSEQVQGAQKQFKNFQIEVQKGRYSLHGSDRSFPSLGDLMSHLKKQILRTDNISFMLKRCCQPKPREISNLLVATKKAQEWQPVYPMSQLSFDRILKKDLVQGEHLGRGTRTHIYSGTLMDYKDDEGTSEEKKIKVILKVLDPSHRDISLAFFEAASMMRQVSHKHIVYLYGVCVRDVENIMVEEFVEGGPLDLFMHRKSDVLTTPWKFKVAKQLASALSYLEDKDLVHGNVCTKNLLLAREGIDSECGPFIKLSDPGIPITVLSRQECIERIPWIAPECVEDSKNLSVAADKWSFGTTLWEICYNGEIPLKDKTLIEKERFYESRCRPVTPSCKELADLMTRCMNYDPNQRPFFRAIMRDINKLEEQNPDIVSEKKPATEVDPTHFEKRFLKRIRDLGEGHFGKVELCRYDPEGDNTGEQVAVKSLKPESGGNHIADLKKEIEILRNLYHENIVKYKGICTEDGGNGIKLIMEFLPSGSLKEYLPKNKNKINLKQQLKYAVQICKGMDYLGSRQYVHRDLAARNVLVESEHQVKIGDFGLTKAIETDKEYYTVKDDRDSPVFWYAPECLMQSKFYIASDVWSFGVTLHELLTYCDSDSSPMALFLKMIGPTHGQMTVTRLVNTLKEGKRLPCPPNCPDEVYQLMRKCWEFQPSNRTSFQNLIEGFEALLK
# Procedure: (§1) Assay 1: Biochemical JAK and Off-Target Kinase Assays
# (§2) A panel of four LanthaScreen JAK biochemical assays (JAK1, 2, 3 and Tyk2) were carried in a common kinase reaction buffer (50 mM HEPES, pH 7.5, 0.01% Brij-35, 10 mM MgCl2, and 1 mM EGTA). Recombinant GST-tagged JAK enzymes and a GFP-tagged STAT1 peptide substrate were obtained from Life Technologies.
# (§3) Serially diluted compounds were pre-incubated with each of the four JAK enzymes and the substrate in white 384-well microplates (Corning) at ambient temperature for 1 h. ATP was subsequently added to initiate the kinase reactions in 10 μL total volume, with 1% DMSO. […] Kinase reactions were allowed to proceed for 1 hour at ambient temperature before a 10 μL preparation of EDTA (10 mM final concentration) and Tb-anti-pSTAT1 (pTyr701) antibody (Life Technologies, 2 nM final concentration) in TR-FRET dilution buffer (Life Technologies) was added. The plates were allowed to incubate at ambient temperature for 1 h before being read on the EnVision reader (Perkin Elmer).
# (§4) Results were expressed as pIC50 (negative logarithm of IC50) and subsequently converted to pKi (negative logarithm of dissociation constant, Ki) using the Cheng-Prusoff equation.
# TYK2 = TYK2 (Homo sapiens (Human), UniProt P29597); format: biochemical
# TYK2, sequence (P29597 whole entry): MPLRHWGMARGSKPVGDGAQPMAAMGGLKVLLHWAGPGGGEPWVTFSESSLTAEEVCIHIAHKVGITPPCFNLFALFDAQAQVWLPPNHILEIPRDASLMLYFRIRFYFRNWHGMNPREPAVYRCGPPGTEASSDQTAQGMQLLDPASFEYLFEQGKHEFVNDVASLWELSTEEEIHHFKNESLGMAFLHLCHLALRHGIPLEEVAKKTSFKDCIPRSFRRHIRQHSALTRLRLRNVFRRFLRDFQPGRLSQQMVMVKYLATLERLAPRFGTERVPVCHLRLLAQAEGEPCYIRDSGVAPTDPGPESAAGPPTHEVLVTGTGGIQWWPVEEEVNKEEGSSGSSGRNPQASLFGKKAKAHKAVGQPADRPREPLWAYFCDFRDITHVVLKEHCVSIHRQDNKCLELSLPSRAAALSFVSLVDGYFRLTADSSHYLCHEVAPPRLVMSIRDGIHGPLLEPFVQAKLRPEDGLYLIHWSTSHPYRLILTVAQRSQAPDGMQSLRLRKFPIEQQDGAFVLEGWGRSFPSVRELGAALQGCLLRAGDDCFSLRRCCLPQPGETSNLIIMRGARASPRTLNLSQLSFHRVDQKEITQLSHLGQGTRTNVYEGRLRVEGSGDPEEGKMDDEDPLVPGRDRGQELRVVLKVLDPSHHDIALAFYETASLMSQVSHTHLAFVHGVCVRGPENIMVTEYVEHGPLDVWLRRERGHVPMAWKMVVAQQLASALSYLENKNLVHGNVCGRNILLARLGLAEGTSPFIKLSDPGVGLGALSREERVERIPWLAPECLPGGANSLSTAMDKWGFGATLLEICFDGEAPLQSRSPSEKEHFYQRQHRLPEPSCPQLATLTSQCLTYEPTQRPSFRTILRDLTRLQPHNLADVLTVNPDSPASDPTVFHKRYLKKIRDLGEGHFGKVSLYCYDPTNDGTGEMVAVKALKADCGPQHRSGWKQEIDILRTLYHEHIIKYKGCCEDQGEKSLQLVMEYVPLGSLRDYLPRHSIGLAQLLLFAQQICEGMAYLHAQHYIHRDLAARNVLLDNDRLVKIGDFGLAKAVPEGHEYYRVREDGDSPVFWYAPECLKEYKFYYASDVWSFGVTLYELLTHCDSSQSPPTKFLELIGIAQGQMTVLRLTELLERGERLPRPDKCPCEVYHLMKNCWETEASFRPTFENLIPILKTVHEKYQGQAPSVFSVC
# Procedure: as §1, §2, §3, §4
# JAK2 = JAK2 (Homo sapiens (Human), UniProt O60674); format: biochemical
# JAK2, sequence (O60674 whole entry): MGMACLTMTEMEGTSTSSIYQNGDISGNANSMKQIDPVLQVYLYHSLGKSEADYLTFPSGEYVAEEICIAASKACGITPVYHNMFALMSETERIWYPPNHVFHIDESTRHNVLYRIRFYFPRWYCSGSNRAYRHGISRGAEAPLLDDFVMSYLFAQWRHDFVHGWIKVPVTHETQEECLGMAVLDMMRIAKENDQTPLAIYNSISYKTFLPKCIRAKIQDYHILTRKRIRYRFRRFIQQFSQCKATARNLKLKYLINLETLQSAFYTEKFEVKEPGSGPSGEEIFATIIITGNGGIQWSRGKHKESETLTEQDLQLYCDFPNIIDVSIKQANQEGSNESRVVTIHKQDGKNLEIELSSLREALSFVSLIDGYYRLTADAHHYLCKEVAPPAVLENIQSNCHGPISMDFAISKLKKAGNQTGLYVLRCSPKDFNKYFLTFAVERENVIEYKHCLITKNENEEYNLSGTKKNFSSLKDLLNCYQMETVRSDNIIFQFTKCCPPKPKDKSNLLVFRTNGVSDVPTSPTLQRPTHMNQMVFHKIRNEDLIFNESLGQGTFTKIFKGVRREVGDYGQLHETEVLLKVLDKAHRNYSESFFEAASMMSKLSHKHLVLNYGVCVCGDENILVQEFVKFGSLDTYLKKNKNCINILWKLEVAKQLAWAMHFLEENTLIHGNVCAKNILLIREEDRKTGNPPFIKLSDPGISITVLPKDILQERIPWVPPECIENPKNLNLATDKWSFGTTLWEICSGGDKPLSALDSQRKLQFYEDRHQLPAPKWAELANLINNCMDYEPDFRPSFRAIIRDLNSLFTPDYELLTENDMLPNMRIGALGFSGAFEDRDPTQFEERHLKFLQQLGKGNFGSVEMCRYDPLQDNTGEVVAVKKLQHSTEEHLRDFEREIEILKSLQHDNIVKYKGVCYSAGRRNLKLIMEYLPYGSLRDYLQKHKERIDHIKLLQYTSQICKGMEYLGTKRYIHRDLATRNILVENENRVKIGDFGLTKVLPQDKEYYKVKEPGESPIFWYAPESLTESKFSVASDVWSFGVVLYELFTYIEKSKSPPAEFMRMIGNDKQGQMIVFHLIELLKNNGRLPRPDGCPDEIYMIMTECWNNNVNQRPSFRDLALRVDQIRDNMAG
# Procedure: as §1, §2, §3, §4
# [2] = tested on: IL-4 induced STAT6 phosphorylation in THP-1 human monocytic cells
# [3] = tested on: oxazolone-induced colitis; experiment: Mouse model of oxazolone-induced colitis; format: in vivo, BALB/C mice; settings: PO, 1, 3, and/or 10 mg/kg BID (doses up to 10 mg/kg BID)
# Procedure: Assay 7: Mouse Model of Oxazalone-Induced Colitis
# Oxazolone-induced colitis is an experimental model that has a histological resemblance to human ulcerative colitis (Heller et al. Immunology, 2002, 17, 629-638). Adult BALB/C mice from Harlan were used in the assay. On day 1, animals were lightly anesthetized with isoflurane and the hairs between the shoulder were carefully removed before oxazolone (4%, 150 μL, 4:1 acetone:olive oil formulation) or vehicle solution was slowly applied for skin sensitization. Seven days after skin sensitization, the mice were fasted overnight, anesthetized with isoflurane inhalation, and a 1 mL syringe equipped with a 3.5-F catheter, filled with oxazolone solution, was inserted carefully about 4 cm into the colon of the mouse. Following insertion, 50 μL of the oxazolone solution (1%, 1:1 ethanol:water formulation) was injected very slowly (over 30 sec using an injection pump) into the colon. The catheter was removed and the mice were held vertically (head down) for 2 min to ensure that the entire oxazolone solution remained inside the colon. Drug treatment (PO, BID or TID) or vehicle was initiated a day prior to the oxazolone intrarectal (IR) challenge. Two-day post oxazolone intrarectal challenge, the Disease Activity Index (DAI) was assessed by treatment-blinded experimenters for each mouse according to the criteria score: stool consistency score (0, normal; 2, loose; 4, diarrhea), gross bleeding score (0, absence; 2, blood tinged; 4, presence), and weight loss score (0, none; 1, 1%-5%; 2, 5%-10^%; 3, 10%-20%; 4, more than 20%); DAI=average of (stool consistency score+gross bleeding score+weight loss score).
# Selected compounds of the invention were tested in the assay. Efficacy in the model is evidenced by a decrease in DAI score as compared with the score from vehicle treated animals.
# [4] = Determination of absorption in cannulated rats; format: in vivo, Sprague Dawley rats; settings: rat, oral dose
# Procedure: Drug levels were determined using an LC-MS-MS method. The resulting drug levels were used to compute the IV pharmacokinetic parameters: AUC IV and Dose IV. (2) Rats that have been cannulated in their portal vein (PV) and also in their jugular vein (JV) were dosed orally with test compound. Following oral dosing, plasma samples were typically collected from 0-6 hr from both the portal vein and the jugular vein. Drug levels were determined using an LC-MS-MS method. The resulting drug levels were used to compute the following pharmacokinetic parameters: AUC PO PV, AUC PO JV, and Dose PO. Using data derived from the above studies, the oral bioavailability F %, and the quantities Fa % and Fh % were calculated from the following formulas: F %=(AUC PO JV/AUC IV)*(Dose IV/Dose PO)*100 Fa %=(AUC PO PV/AUC IV)*(Dose IV/Dose PO)*100 Fh %=AUC PO JV/AUC PO PV where: AUC PO JV=Area under the curve following oral dose and plasma collected from the jugular vein AUC PO PV=Area under the curve following oral dose and plasma collected from the portal vein AUC IV=Area under the curve following an intravenous dose Dose IV=Intravenous Dose in mg/kg Dose PO=Oral Dose in mg/kg
# [5] = 5% to 90% relative humidity, room temperature; listed as Crystalline 3-(1R,3s,5S)-3-((7-((5-methyl-H-pyrazol-3-yl)amino)-1,6-naphthyridi))
# Procedure: A weighed sample was used and the humidity was lowest possible value (close to 0% RH) at the start of the analysis. The DMS analysis consisted of an initial drying step (0% RH) for 120 minutes, followed by two cycles of sorption and desorption with a scan rate of 5% RH/step over the humidity range of 5% RH to 90% RH. The DMS run was performed isothermally at 25° C.
# [6] = tested on: splenic NK, B and T cells; experiment: Immunosuppression effects in mouse splenic natural killer (NK) cells; format: in vivo, Balb/C mice; settings: mouse, PO BID three days
# Procedure: Assay 8: Immunosuppression Effects in Mouse Splenic Natural Killer (NK) Cells Depletion of mouse splenic cells is an experimental model of immunosuppression (Kudlacz et al., Am. J. of Transplantation, 2004, 4, 51-57). […] Adult male Balb/C mice (12-14 weeks of age) from Harlan were used for the study. […] Spleens were harvested 1 or 2 h post last dose and crushed immediately for cell subtype staining. Prior to fixation, fluorophore-labelled antibodies for CD19 (FITC; B cells), CD3e (PE; pan T cells) and DX5 (APC; NK cells) were incubated with splenocyte samples from each animal to allow for simultaneous, multiple subtype % analysis on the flow cytometer. The number of total spleen cells for each animal was measured by Scepter™ 2.0 Handheld Automated Cell Counter. The absolute number of lymphocyte subtype population (e.g., splenic B, T and NK cells) was calculated from the percentage of each subtype times total spleen cells for each animal. A one way ANOVA, with Dunnett's post hoc test, was used to compare the splenic lymphocytes number of the vehicle and test compound groups. The a level was set at p<0.05. Data were presented as the mean±SEM for each group.
# [7] = BEAS-2B cells, IL-13 induced STAT6 phosphorylation
# [8] = THP-1 cells, IL-4 induced STAT6 phosphorylation
compound,measurement,setting,value
Cc1cc(Nc2cc3ncccc3c(N[C@@H]3C[C@H]4CC[C@@H](C3)N4CC(F)(F)F)n2)n[nH]1 [Example 1-14],BEAS2B pIC50,[1]; [7],A (A represents a pEC50 value ≥7.5 (EC50≤32 nM))
same,JAK 1 (pKi),JAK1,B (B represents a pKi value between 9 and 10 (Ki between 1 nM and 0.1 nM))
same,Tyk 2 (pKi),TYK2,B (B represents a pKi value between 9 and 10 (Ki between 1 nM and 0.1 nM))
same,JAK 2 (pKi),JAK2,B (B represents a pKi value between 9 and 10 (Ki between 1 nM and 0.1 nM))
same,THP-1 IL4 pIC50,[2]; [8],A (A represents a pEC50 value ≥7.5 (EC50≤32 nM))
Cc1cc(Nc2cc3ncccc3c(N[C@@H]3C[C@H]4CC[C@@H](C3)N4Cc3cccc(O)c3)n2)n[nH]1 [Example 1-19],Tyk 2 (pKi),TYK2,C (C represents a pKi value between 7 and 9 (Ki between 100 nM and 1 nM))
same,THP-1 IL4 pIC50,[2]; [8],B (B represents a pEC50 value between 6.7 and 7.5 (EC50 between 200 nM and 32 nM))
Cc1cc(Nc2cc3ncccc3c(N[C@@H]3C[C@H]4CC[C@@H](C3)N4CC3(C#N)CC3)n2)n[nH]1 [Example 1-24],BEAS2B pIC50,[1]; [7],A (A represents a pEC50 value ≥7.5 (EC50≤32 nM))
same,THP-1 IL4 pIC50,[2]; [8],B (B represents a pEC50 value between 6.7 and 7.5 (EC50 between 200 nM and 32 nM))
Cc1cc(Nc2cc3ncccc3c(N[C@@H]3C[C@H]4CCC[C@@H](C3)N4CC(F)(F)F)n2)n[nH]1 [Example 1-45],JAK 1 (pKi),JAK1,B (B represents a pKi value between 9 and 10 (Ki between 1 nM and 0.1 nM))
same,Tyk 2 (pKi),TYK2,B (B represents a pKi value between 9 and 10 (Ki between 1 nM and 0.1 nM))
same,JAK 2 (pKi),JAK2,B (B represents a pKi value between 9 and 10 (Ki between 1 nM and 0.1 nM))
CCC(=O)N1[C@@H]2CC[C@H]1C[C@H](Nc1nc(Nc3cc(C)[nH]n3)cc3ncccc13)C2 [Example 2-1],DAI score as compared with vehicle treated animals,[3],did not exhibit a statistically significant decrease
same,BEAS2B pIC50,[1]; [7],B (B represents a pEC50 value between 6.7 and 7.5 (EC50 between 200 nM and 32 nM))
same,THP-1 IL4 pIC50,[2]; [8],B (B represents a pEC50 value between 6.7 and 7.5 (EC50 between 200 nM and 32 nM))
Cc1cc(Nc2cc3ncccc3c(N[C@@H]3C[C@H]4CC[C@@H](C3)N4C(=O)C3(C)CCCC3)n2)n[nH]1 [Example 2-10],JAK 1 (pKi),JAK1,B (B represents a pKi value between 9 and 10 (Ki between 1 nM and 0.1 nM))
same,THP-1 IL4 pIC50,[2],B (key: A represents a pEC50 value ≥7.5 (EC50≤32 nM); B represents a pEC50 value between 6.7 and 7.5 (EC50 between 200 nM and 32 nM); C represents a pEC50 value <6.7 (EC50>200 nM))
Cc1cc(Nc2cc3ncccc3c(N[C@@H]3C[C@H]4CC[C@@H](C3)N4C(=O)c3cccnc3)n2)n[nH]1 [Example 2-14],JAK 1 (pKi),JAK1,B (B represents a pKi value between 9 and 10 (Ki between 1 nM and 0.1 nM))
same,THP-1 IL4 pIC50,[2],C (key: A represents a pEC50 value ≥7.5 (EC50≤32 nM); B represents a pEC50 value between 6.7 and 7.5 (EC50 between 200 nM and 32 nM); C represents a pEC50 value <6.7 (EC50>200 nM))
COC(=O)C1(C(=O)N2[C@@H]3CCC[C@H]2C[C@H](Nc2nc(Nc4cc(C)[nH]n4)cc4ncccc24)C3)CC1 [Example 2-21],JAK 1 (pKi),JAK1,B (B represents a pKi value between 9 and 10 (Ki between 1 nM and 0.1 nM))
Cc1cc(Nc2cc3ncccc3c(N[C@@H]3C[C@H]4CCC[C@@H](C3)N4C(=O)C3(C)CCCC3)n2)n[nH]1 [Example 2-23],JAK 1 (pKi),JAK1,B (B represents a pKi value between 9 and 10 (Ki between 1 nM and 0.1 nM))
CCC1(S(=O)(=O)N2[C@@H]3CCC[C@H]2C[C@H](Nc2nc(Nc4cc(C)[nH]n4)cc4ncccc24)C3)CC1 [Example 4-20],BEAS2B pIC50,[1],A (key: A represents a pEC50 value ≥7.5 (EC50≤32 nM); B represents a pEC50 value between 6.7 and 7.5 (EC50 between 200 nM and 32 nM); C represents a pEC50 value <6.7 (EC50>200 nM))
CCS(=O)(=O)N1[C@@H]2CC[C@H]1C[C@H](Nc1nc(Nc3cc(C)[nH]n3)cc3nc(CN4CCOCC4)ccc13)C2 [Example 5-16],BEAS2B pIC50,[1]; [7],B (B represents a pEC50 value between 6.7 and 7.5 (EC50 between 200 nM and 32 nM))
same,THP-1 IL4 pIC50,[2]; [8],B (B represents a pEC50 value between 6.7 and 7.5 (EC50 between 200 nM and 32 nM))
"Cc1cc(Nc2cc3ncccc3c(N[C@@H]3C[C@H]4CCC[C@@H](C3)N4S(=O)(=O)c3cccnc3)n2)n[nH]1 [Example 8, N^7-(5-methyl-1H-pyrazol-3-yl)-N-((1R,3s,5S)-9-(pyridin-3-ylsulfonyl)-9-azabicyclo[3.3.1]nonan-3-yl)-1,6-naphthyridine-5,7-diamine]",DAI score as compared with vehicle treated animals,[3],statistically significant decrease
same,absorption at the portal vein (Fa %),[4],less than 10%
"Cc1cc(Nc2cc3nc(CO)ccc3c(N[C@@H]3C[C@H]4CC[C@@H](C3)N4C(=O)OCC(C)C)n2)n[nH]1 [Example 12, Isobutyl (1R,3s,5S)-3-((2-(hydroxymethyl)-7-((5-methyl-1H-pyrazol-3-yl)amino)-1,6-naphthyridin-5-yl)amino)-8-azabicyclo[3.2.1]octane-8-carboxylate]",DAI score as compared with vehicle treated animals,[3],statistically significant decrease
same,absorption at the portal vein (Fa %),[4],less than 10%
"Cc1cc(Nc2cc3ncccc3c(N[C@@H]3C[C@H]4CC[C@@H](C3)N4CCC#N)n2)n[nH]1 [Form I, 3-((1R,3s,5S)-3-((7-((5-methyl-1H-pyrazol-3-yl)amino)-1,6-naphthyridin-5-yl)amino)-8-azabicyclo[3.2.1]octan-8-yl)propanenitrile]",weight gain / weight change (moisture sorption),[5],less than 0.15%
"C[C@@H]1CCN(C(=O)CC#N)C[C@@H]1N(C)c1ncnc2[nH]ccc12 [tofacitinib, reference compound]",B and T cell populations (spleen),[6],No treatment effect
